Measurements from the NIST ThermoML archive (doi:10.1021/je301147k).
± gives the expanded uncertainty stated by the source.

Assay: mn = molality of the nth substance listed, in mol/kg
Settings: for electrical conductivity: 100 kPa, Liquid, CyberScan CON1500 Bench Conductivity Meter; for surface tension liquid-gas: 298.2 K, Ring tensiometer

SMILES: CCCCCCCCCCCCn1cc[n+](C)c1.[Br-] [1-dodecyl-3-methylimidazolium bromide] + O
- electrical conductivity (288.15 K, m1 = 0.001): 0.00769 ± 0.00015 S/m
- electrical conductivity (288.15 K, m1 = 0.002): 0.0157 ± 0.00029 S/m
- electrical conductivity (288.15 K, m1 = 0.003): 0.0224 ± 0.00042 S/m
- electrical conductivity (288.15 K, m1 = 0.004): 0.0302 ± 0.00057 S/m
- electrical conductivity (288.15 K, m1 = 0.005): 0.0379 ± 0.0007 S/m
- electrical conductivity (288.15 K, m1 = 0.006): 0.0445 ± 0.00083 S/m
- electrical conductivity (288.15 K, m1 = 0.007): 0.052 ± 0.00097 S/m
- electrical conductivity (288.15 K, m1 = 0.008): 0.0589 ± 0.0011 S/m
- electrical conductivity (288.15 K, m1 = 0.009): 0.0657 ± 0.0012 S/m
- electrical conductivity (288.15 K, m1 = 0.01): 0.0717 ± 0.0013 S/m
- electrical conductivity (288.15 K, m1 = 0.011): 0.0758 ± 0.0013 S/m
- electrical conductivity (288.15 K, m1 = 0.012): 0.0776 ± 0.0013 S/m
- electrical conductivity (288.15 K, m1 = 0.013): 0.0799 ± 0.0013 S/m
- electrical conductivity (288.15 K, m1 = 0.014): 0.0814 ± 0.0013 S/m
- electrical conductivity (288.15 K, m1 = 0.015): 0.0837 ± 0.0014 S/m
- electrical conductivity (288.15 K, m1 = 0.016): 0.0854 ± 0.0014 S/m
- electrical conductivity (288.15 K, m1 = 0.017): 0.0874 ± 0.0014 S/m
- electrical conductivity (288.15 K, m1 = 0.018): 0.0882 ± 0.0014 S/m
- electrical conductivity (288.15 K, m1 = 0.019): 0.0893 ± 0.0014 S/m
- electrical conductivity (288.15 K, m1 = 0.02): 0.0913 ± 0.0015 S/m
- electrical conductivity (288.15 K, m1 = 0.021): 0.0923 ± 0.0015 S/m
- electrical conductivity (288.15 K, m1 = 0.022): 0.0935 ± 0.0015 S/m
- electrical conductivity (288.15 K, m1 = 0.023): 0.0948 ± 0.0015 S/m
- electrical conductivity (288.15 K, m1 = 0.024): 0.0964 ± 0.0016 S/m
- electrical conductivity (288.15 K, m1 = 0.025): 0.0985 ± 0.0016 S/m
- electrical conductivity (293.15 K, m1 = 0.001): 0.00898 ± 0.00017 S/m
- electrical conductivity (293.15 K, m1 = 0.002): 0.0181 ± 0.00033 S/m
- electrical conductivity (293.15 K, m1 = 0.003): 0.0261 ± 0.00048 S/m
- electrical conductivity (293.15 K, m1 = 0.004): 0.0345 ± 0.0006 S/m
- electrical conductivity (293.15 K, m1 = 0.005): 0.043 ± 0.00079 S/m
- electrical conductivity (293.15 K, m1 = 0.006): 0.0504 ± 0.00093 S/m
- electrical conductivity (293.15 K, m1 = 0.007): 0.0589 ± 0.0011 S/m
- electrical conductivity (293.15 K, m1 = 0.008): 0.0664 ± 0.0012 S/m
- electrical conductivity (293.15 K, m1 = 0.009): 0.074 ± 0.0014 S/m
- electrical conductivity (293.15 K, m1 = 0.01): 0.0814 ± 0.0014 S/m
- electrical conductivity (293.15 K, m1 = 0.011): 0.0853 ± 0.0014 S/m
- electrical conductivity (293.15 K, m1 = 0.012): 0.0876 ± 0.0014 S/m
- electrical conductivity (293.15 K, m1 = 0.013): 0.0907 ± 0.0015 S/m
- electrical conductivity (293.15 K, m1 = 0.014): 0.0922 ± 0.0015 S/m
- electrical conductivity (293.15 K, m1 = 0.015): 0.0947 ± 0.0015 S/m
- electrical conductivity (293.15 K, m1 = 0.016): 0.0966 ± 0.0016 S/m
- electrical conductivity (293.15 K, m1 = 0.017): 0.0986 ± 0.0016 S/m
- electrical conductivity (293.15 K, m1 = 0.018): 0.0998 ± 0.0016 S/m
- electrical conductivity (293.15 K, m1 = 0.019): 0.101 ± 0.0017 S/m
- electrical conductivity (293.15 K, m1 = 0.02): 0.104 ± 0.0017 S/m
- electrical conductivity (293.15 K, m1 = 0.021): 0.106 ± 0.0017 S/m
- electrical conductivity (293.15 K, m1 = 0.022): 0.107 ± 0.0017 S/m
- electrical conductivity (293.15 K, m1 = 0.023): 0.109 ± 0.0018 S/m
- electrical conductivity (293.15 K, m1 = 0.024): 0.111 ± 0.0018 S/m
- electrical conductivity (293.15 K, m1 = 0.025): 0.112 ± 0.0019 S/m
- electrical conductivity (298.15 K, m1 = 0.001): 0.01 ± 0.00019 S/m
- electrical conductivity (298.15 K, m1 = 0.002): 0.0198 ± 0.00037 S/m
- electrical conductivity (298.15 K, m1 = 0.003): 0.029 ± 0.00054 S/m
- electrical conductivity (298.15 K, m1 = 0.004): 0.0386 ± 0.00072 S/m
- electrical conductivity (298.15 K, m1 = 0.005): 0.048 ± 0.00088 S/m
- electrical conductivity (298.15 K, m1 = 0.006): 0.0563 ± 0.001 S/m
- electrical conductivity (298.15 K, m1 = 0.007): 0.0655 ± 0.0012 S/m
- electrical conductivity (298.15 K, m1 = 0.008): 0.0741 ± 0.0014 S/m
- electrical conductivity (298.15 K, m1 = 0.009): 0.0823 ± 0.0015 S/m
- electrical conductivity (298.15 K, m1 = 0.01): 0.0909 ± 0.0016 S/m
- electrical conductivity (298.15 K, m1 = 0.011): 0.0963 ± 0.0016 S/m
- electrical conductivity (298.15 K, m1 = 0.012): 0.0986 ± 0.0016 S/m
- electrical conductivity (298.15 K, m1 = 0.013): 0.102 ± 0.0017 S/m
- electrical conductivity (298.15 K, m1 = 0.014): 0.104 ± 0.0017 S/m
- electrical conductivity (298.15 K, m1 = 0.015): 0.107 ± 0.0018 S/m
- electrical conductivity (298.15 K, m1 = 0.016): 0.11 ± 0.0018 S/m
- electrical conductivity (298.15 K, m1 = 0.017): 0.112 ± 0.0018 S/m
- electrical conductivity (298.15 K, m1 = 0.018): 0.113 ± 0.0018 S/m
- electrical conductivity (298.15 K, m1 = 0.019): 0.115 ± 0.0019 S/m
- electrical conductivity (298.15 K, m1 = 0.02): 0.118 ± 0.0019 S/m
- electrical conductivity (298.15 K, m1 = 0.021): 0.12 ± 0.002 S/m
- electrical conductivity (298.15 K, m1 = 0.022): 0.122 ± 0.002 S/m
- electrical conductivity (298.15 K, m1 = 0.023): 0.125 ± 0.002 S/m
- electrical conductivity (298.15 K, m1 = 0.024): 0.127 ± 0.0021 S/m
- electrical conductivity (298.15 K, m1 = 0.025): 0.129 ± 0.0021 S/m
- surface tension liquid-gas (m1 = 0.0005): 68.38 ± 1.9 mN/m
- surface tension liquid-gas (m1 = 0.001): 62.44 ± 1.8 mN/m
- surface tension liquid-gas (m1 = 0.002): 58.12 ± 1.6 mN/m
- surface tension liquid-gas (m1 = 0.004): 51.39 ± 1.4 mN/m
- surface tension liquid-gas (m1 = 0.006): 43.7 ± 1.2 mN/m
- surface tension liquid-gas (m1 = 0.008): 40.35 ± 1.1 mN/m
- surface tension liquid-gas (m1 = 0.01): 36.83 ± 1.1 mN/m
- surface tension liquid-gas (m1 = 0.012): 36.51 ± 1 mN/m
- surface tension liquid-gas (m1 = 0.014): 36.56 ± 1 mN/m
- surface tension liquid-gas (m1 = 0.016): 36.65 ± 1 mN/m
- surface tension liquid-gas (m1 = 0.018): 36.6 ± 1 mN/m
- surface tension liquid-gas (m1 = 0.02): 36.57 ± 1 mN/m
- surface tension liquid-gas (m1 = 0.025): 36.54 ± 1 mN/m
- surface tension liquid-gas (m1 = 0.03): 36.48 ± 1 mN/m
- surface tension liquid-gas (m1 = 0.04): 36.67 ± 1 mN/m
- surface tension liquid-gas (m1 = 0.05): 36.67 ± 1 mN/m
- electrical conductivity (303.15 K, m1 = 0.001): 0.0112 ± 0.00021 S/m
- electrical conductivity (303.15 K, m1 = 0.002): 0.0223 ± 0.00041 S/m
- electrical conductivity (303.15 K, m1 = 0.003): 0.032 ± 0.00059 S/m
- electrical conductivity (303.15 K, m1 = 0.004): 0.0427 ± 0.00079 S/m
- electrical conductivity (303.15 K, m1 = 0.005): 0.0519 ± 0.00096 S/m
- electrical conductivity (303.15 K, m1 = 0.006): 0.0626 ± 0.0012 S/m
- electrical conductivity (303.15 K, m1 = 0.007): 0.0728 ± 0.0014 S/m
- electrical conductivity (303.15 K, m1 = 0.008): 0.0824 ± 0.0015 S/m
- electrical conductivity (303.15 K, m1 = 0.009): 0.0916 ± 0.0017 S/m
- electrical conductivity (303.15 K, m1 = 0.01): 0.101 ± 0.0018 S/m
- electrical conductivity (303.15 K, m1 = 0.011): 0.107 ± 0.0018 S/m
- electrical conductivity (303.15 K, m1 = 0.012): 0.111 ± 0.0018 S/m
- electrical conductivity (303.15 K, m1 = 0.013): 0.116 ± 0.0019 S/m
- electrical conductivity (303.15 K, m1 = 0.014): 0.118 ± 0.0019 S/m
- electrical conductivity (303.15 K, m1 = 0.015): 0.122 ± 0.002 S/m
- electrical conductivity (303.15 K, m1 = 0.016): 0.124 ± 0.002 S/m
- electrical conductivity (303.15 K, m1 = 0.017): 0.127 ± 0.0021 S/m
- electrical conductivity (303.15 K, m1 = 0.018): 0.129 ± 0.0021 S/m
- electrical conductivity (303.15 K, m1 = 0.019): 0.131 ± 0.0021 S/m
- electrical conductivity (303.15 K, m1 = 0.02): 0.134 ± 0.0022 S/m
- electrical conductivity (303.15 K, m1 = 0.021): 0.136 ± 0.0022 S/m
- electrical conductivity (303.15 K, m1 = 0.022): 0.139 ± 0.0023 S/m
- electrical conductivity (303.15 K, m1 = 0.023): 0.141 ± 0.0023 S/m
- electrical conductivity (303.15 K, m1 = 0.024): 0.144 ± 0.0024 S/m
- electrical conductivity (303.15 K, m1 = 0.025): 0.146 ± 0.0024 S/m
